Data from patent US8574323B2, “Marker compounds for liquid hydrocarbons and other fuels and oils” (Angus Chemical Company, priority 2010, dated 2013).

Tests used:
[1] = Laundering stability and extractability of the marker in xylene solution (GC against un-laundered reference); format: physicochemical; conditions: 8 hours; for marker: relative to control = 100
Protocol: (§1) The stability and extractability of the markers was performed using xylene solutions containing between 100-1000 ppm makers and an equivalent amount of squalene internal reference standard using the following protocols:
Mix 95 parts marked xylenes with 5 parts laundering agent in a 100 mL vial. Mix gently for 8 hours using a magnetic stir bar. Stop mixing and remove a xylene solution aliquot. Analyze by GC and compare marker response to reference (un-laundered) sample.
(§2) Laundering Agents: • 1) 5% sulfuric acid • 2) 98% sulfuric acid • 3) 5% NaOH solution • 4) 50% NaOH solution • 5) Activated charcoal (use 98 parts xylenes solution to 2 parts charcoal) • 6) 5% bleach To test for metal adsorptivity, 100 mL marked xylene tests solution is treated with 5 grams metal shavings at room temperature for 8 hours. GC analysis is again used to determine any loss of marker to the metal surface.

[2] = Metal adsorptivity of the marker from xylene solution (GC); format: physicochemical; conditions: Metals: 5 grams metal shavings per 100 mL, room temperature, 8 hours
Protocol: as §1, §2

Cc1ccc(C)c(Cc2ccc(-c3ccc(Cc4cc(C)ccc4C)cc3)cc2)c1 [4,4′-bis(2,5-dimethylbenzyl)-1,1′-biphenyl]
% change ([1]; 2% charcoal (activated)): −6% | marker ([1]; 2% charcoal (activated)): 94 | % change ([1]; 5% H2SO4 laundering): −1.75% | marker ([1]; 5% H2SO4 laundering): 98.25 | % change ([1]; 5% NaOH laundering): −2.79% | marker ([1]; 5% NaOH laundering): 102.79 | % change ([1]; 5% bleach laundering): −65% | marker ([1]; 5% bleach laundering): 35 | % change ([1]; 50% NaOH laundering): −1.74% | marker ([1]; 50% NaOH laundering): 98.26 | % change ([1]; 98% H2SO4 laundering): 0.47% | marker ([1]; 98% H2SO4 laundering): 100.47 | % change [2]: +4% | marker ([2]; relative to control = 100): 104
